# Results reported in PubChem BioAssay (NCI).
#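 Method: 48-hour compound exposure of cells in 96-well plates, five concentrations, linear interpolation of endpoints. GI50 = concentration required for 50% inhibition of growth. The concentration for full growth arrest is given as TGI.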
# Columns and labels:
# Assay in all cases: growth of human tumour cells (NCI), 48 h
# UACC-257 melanoma = tested on: UACC-257 melanoma
# U251 CNS = tested on: U251 CNS
# SK-MEL-28 melanoma = tested on: SK-MEL-28 melanoma
# EKVX NSCLC = tested on: EKVX NSCLC
# SK-MEL-2 melanoma = tested on: SK-MEL-2 melanoma
# UACC-62 melanoma = tested on: UACC-62 melanoma
# SF-268 CNS = tested on: SF-268 CNS
# NCI-H23 lung = tested on: NCI-H23 lung
# OVCAR-4 ovarian = tested on: OVCAR-4 ovarian
# OVCAR-8 ovarian = tested on: OVCAR-8 ovarian
Structure (SMILES),TGI (UACC-257 melanoma) [µM],TGI (U251 CNS) [µM],TGI (SK-MEL-28 melanoma) [µM],TGI (EKVX NSCLC) [µM],TGI (SK-MEL-2 melanoma) [µM],TGI (UACC-62 melanoma) [µM],TGI (SF-268 CNS) [µM],TGI (NCI-H23 lung) [µM],TGI (OVCAR-4 ovarian) [µM],TGI (OVCAR-8 ovarian) [µM],GI50 (UACC-257 melanoma) [µM],GI50 (U251 CNS) [µM],GI50 (SK-MEL-28 melanoma) [µM],GI50 (EKVX NSCLC) [µM],GI50 (SK-MEL-2 melanoma) [µM],GI50 (UACC-62 melanoma) [µM],GI50 (SF-268 CNS) [µM],GI50 (NCI-H23 lung) [µM],GI50 (OVCAR-4 ovarian) [µM],GI50 (OVCAR-8 ovarian) [µM]
CC(C)c1cc(CN(C)C)c(O)c(C(C)(C)C)c1,29.2,30,69.3,64.4,38.6,> 100,58.4,> 100,99.1,99.6,–,–,–,–,–,–,–,–,–,–
C=CC[N+]12CN3CN(CN(C3)C1)C2,61.7,> 100,55.5,46.4,> 100,80.2,72.3,52.8,52.9,57.6,–,–,–,–,–,–,–,–,–,–
COc1ccc(C[C@H](N)C(=O)NC2C(CO)OC(n3cnc4c(N(C)C)ncnc43)C2O)cc1 (stereo not given in full),1.67,0.131,0.481,1.06,3.26,0.411,2.61,0.432,2.1,0.68,–,–,–,–,–,–,–,–,–,–
O=C1c2ccccc2C(=O)c2c(Nc3ccc4c5c(cccc35)C(=O)c3ccccc3-4)cccc21,> 100,> 100,–,> 100,> 100,> 100,> 100,> 100,> 100,–,–,–,–,–,–,–,–,–,–,–
CC(C)(C)N1C(C(=O)c2ccccc2)C1c1ccccc1 (stereo not given),> 100,> 100,> 100,> 100,–,> 100,–,> 100,> 100,> 100,–,–,–,–,–,–,–,–,–,–
O=c1ccc2nc(-c3ccccc3)nn(-c3ccccn3)c-2c1,14.6,42.4,29.8,28.2,41.9,32.8,41,45.1,3.19,> 100,3.66,17.2,12.3,14.8,15,15,19,13.6,1.67,8.87
N#CN=C(N)NC(=O)/C=C/C=C/c1ccc(Cl)cc1,> 100,> 100,> 100,–,> 100,> 100,> 100,> 100,> 100,> 100,–,–,–,–,–,–,–,–,–,–
Nc1nc(N)c2c(n1)NC(=O)c1c(c3ccccc3n1Cc1ccc(Cl)cc1)C2,> 100,> 100,> 100,> 100,> 100,> 100,> 100,> 100,49.9,96.6,–,–,–,–,–,–,–,–,–,–
